In patent US20090130064A1, “DIFFERENTIATION OF STEM CELLS AND STABILIZATION OF PHENOTYPICAL PROPERTIES OF PRIMARY CELLS” (priority 2004, published 2009):

How the values were obtained:
ribosomal S6 subunit = test: Western blotting of S6 phosphorylation in synchronized hepatocytes; type: cell-based, rat; details: 50 μM
Method: Total cell extracts were prepared as described previously (Papeleu et al. J Hepatol 39: 374-382, 2003) and proteins (25 or 50 μg per lane) were separated electrophoretically by SDS-PAGE and electroblotted onto nitrocellulose membranes (Amersham Pharmacia Biotech, Buckinghamshire, UK). Equal sample loading was verified by immersion of the membranes in Ponceau S. Unspecific binding sites were blocked with 5% skim milk/Tris-buffered saline. Incubations with primary antibodies were performed overnight at 4° C. under gentle shaking. Proteins were detected using the ECL detection system (Amersham Pharmacia Biotech, Buckinghamshire, UK) according to the manufacturer's recommendations.
Early cell cycle events can be triggered by distinct signalling pathways, activated by EGF, namely: the MEK/ERK, the mTOR/p70S6k, and the Pak1 pathways. Eventually, they all converge on cyclin D1 and play thus an essential role in the regulation of this critical cell cycle protein. […] This was done by culturing the hepatocytes in the absence of EGF for 48 hours, consequently stimulating them with EGF and exposing them to 50 μM 4-Me2N-BAVAH for 0.5, 1 and 3 hours before harvesting. Shortly after stimulation of synchronized primary hepatocytes with EGF, a rapid and sustained phosphorylation of ERK1/2 was observed (FIG. 20A). […]

primary rat hepatocytes = test: FACS analysis of cell cycle distribution of primary rat hepatocytes; type: cell-based; details: 50 μM + EGF; 72 hours
Method: Ploidy of hepatocyte nuclei was measured by FACS analysis. After hypotonic swelling of the cells with 0.1% sodium citrate, cellular DNA was stained with propidium iodide (50 μg/ml) and analyzed on a FACStar^Plus (Beckton Dickinson Biosciences, San José, Calif., USA).

Pak1 = test: Western blotting of Pak1 in primary rat hepatocytes; type: cell-based; details: 50 μM, sustained treatment, EGF-stimulated
Source text: Male outbred Sprague-Dawley rats (200-300 g, Iffa Credo, Brussels, Belgium) were kept under controlled environmental conditions (12-hr light-dark cycle) and fed a standard diet (Animafabo A04, water ad libitum). Hepatocytes were isolated by a two-step collagenase perfusion as described (De Smet et al. In ‘Methods in Molecular Biology, Vol. 107: Cytochrome P450 Protocols’, Philips I R and Shephard E A, eds., pp 295-301, Humana Press, Totowa, 1998). Cell liability was >90% as determined by trypan blue exclusion. Cells (0.4×10^5 cells/cm^2) were plated in MEM/M199 (3:1), containing BSA (1 mg/ml), bovine insulin (10 μg/ml), L-glutamine (2 mM), FBS (10% v/v) and antibiotics (7.3 IU/ml benzyl penicillin, 50 μg/ml streptomycin sulphate, 50 μg/ml kanamycin monosulphstep and 10 μg/ml sodium ampicillin). Four hours after plating, serum-containing medium was removed and fresh serum-free medium was added to the cultures. Culture medium was refreshed daily. […]
Total cell extracts were prepared as described previously (Papeleu et al. J Hepatol 39: 374-382, 2003) and proteins (25 or 50 μg per lane) were separated electrophoretically by SDS-PAGE and electroblotted onto nitrocellulose membranes (Amersham Pharmacia Biotech, Buckinghamshire, UK). […] Proteins were detected using the ECL detection system (Amersham Pharmacia Biotech, Buckinghamshire, UK) according to the manufacturer's recommendations.

Cx43 = Cx43 expression and localization (immunoblotting, immunocytochemistry) in rat hepatocytes; type: cell-based; details: 1 μM TSA
Method: In all conditions, the hepatocytes were cultivated as a monolayer configuration, and samples were taken at days 1, 4 and 7 (D1, D4, D7) of the cultivation time.
Proteins (25 or 50 μg) were resolved on SDS-PAGE (7.5, 10 or 12%) and blotted afterwards onto nitrocellulose membranes. After blocking with non-fatty milk, membranes were incubated with appropriate concentrations of primary and secondary antibodies (HRP labeled). Proteins were detected using the ECL detection system (Amersham Biosciences). Primary antibodies: Cx26 (Zymed, 1/250), Cx32 (Sigma, 1/500), Cx43 (Zymed, 1/100).
Hepatocytes were fixed with cold ethanol, peremeabilised with Triton X-100 (Sigma) and blocked with non-fatty milk. Following incubation with appropriate concentrations of primary and secondary antibodies (FITC or TRITC labeled), samples were mounted with DAPI-containing Vectashield (Vector Laboratories). Detection was performed by fluorescence microscopy (Leica DMR/XA).

[1] = tested on: glutathione S-transferase (GST); test: Total cytosolic GST activity in cultured rat hepatocytes; type: cell-based; details: TSA starting at 4 hours; day 4 and 7
Source text: Hepatocytes were isolated from male Sprague-Dawley rats by a two-step collagenase perfusion as described (De Smet et al. In ‘Methods in Molecular Biology, Vol. 107: Cytochrome P450 Protocols’, Philips IR and Shephard E A, eds., p.p 295-301, Humana Press, Totowa, 1998). Hepatocytes were cultivated in monolayer cultures with Willam's E Medium (WE) for 7 days. […] The maintenance of differentiation characteristics was studied after 2, 4, and 7 days (D2, D4, D7) of culture.
In order to investigate Phase II biotransformation, total cytosolic glutathione S-transferase (GST) activity and activities of individual GSTA, GSTP, and GSTM iso-enzymes were measured using standard techniques known in the art. (i.e., measuring conjugation of reduced glutathione with 1-chloro-2,4-dinitrobenzene for total GST; measuring conjugation of reduced glutathione with 7-chloro-4-nitrobenzo-2-oxa-1,3-diazole for GSTA activity; measuring conjugation of reduced glutathione with ethacrynic acid for GSTP activity; and measuring conjugation of reduced glutathione with 1,2-dichloro-4-nitrobenzene for GSTM activity).

hMSC = test: Albumin ELISA, ALB secretion by hMSC; type: cell-based, human; details: for ALB secreted: sequential + 1 μM TSA from day 6
Method: Low-density hMSC (CD45^−, Thy^+) were cultivated at 21.5 10^3 cells cm^2 on 1 mg/ml collagen gel type I matrix in the presence of liver-specific (LSP) cytokines, added either as a cocktail [basal medium supplemented with 10 ng/ml FGF-4 (fibroblast growth factor type 4), 20 ng/ml HGF (hepatic growth factor) (all from R&D), 1×ITS (insulin, transferrin, selenious acid) and 0.05 μM Dex (dexamethasone) (all from Sigma)] or sequentially [basal medium supplemented with 10 ng/ml FGF-4, following basal media supplemented with 20 ng/ml HGF (R&D) and finally basal medium supplemented with 20 ng/ml HGF, 1×ITS and 0.05 μM Dex]. Basal medium consisted of 60% (v/v) DMEM-LG/40% (v/v) MCDB-201 supplemented with 1 mg/ml LA-BSA, 100 IU/ml penicillin, 100 μg/ml streptomycin, 0.1 mM L-ascorbic acid, 4 μg/ml nicotinamide, 27.3 mg/l sodium-pyruvate and 1.623 mM glutamin (all from Sigma). The media were changed every three days.
ALB concentrations secreted into the media were analysed by a competitive enzyme-linked immunosorbent assay (ELISA) as described (Koebe et al. Int J Artif Organs 17: 95-106, 1994). The ALB levels were normalized with respect to the media used.

SMILES	S6 phosphorylation (ribosomal S6 subunit)	number of cells in G2/M (primary rat hepatocytes)	proportion of cells in G0/G1 (primary rat hepatocytes)	cellular levels of Pak1 (Pak1)	expression of Cx43 (Cx43)	localization of Cx43 (Cx43)	total GST activity versus EtOH treated controls [1]	ALB secretion (hMSC; cocktail + 1 μM TSA, not significant)	ALB levels (hMSC; conditioned medium, sequential + TSA, day 17) [µg/mL]	difference in ALB secretion between cells with and without TSA (hMSC; conditioned medium, sequential, TSA day 0 until HGF, day 15) [fold]	ALB secreted (hMSC; day 15) [µg/mL]	ALB secreted (hMSC; day 17) [µg/mL]
CN(C)c1ccc(C(=O)NCCCCC(=O)NO)cc1 [4-Me2N-BAVAH, 5-(4-dimethylaminobenzoyl)-aminovaleric acid hydroxamide]	only a minor increase	significantly lower	significantly higher proportion	decrease in the cellular levels of Pak1	–	–	–	–	–	–	–	–
CC(C=CC(=O)NO)=CC(C)C(=O)c1ccc(N(C)C)cc1 (stereo not drawn) [TSA]	–	–	–	–	induces the expressions	cytosolic localization	significantly higher	upregulation	2.26 ± 0.092	2.28	2.019 ± 0.144	3.456 ± 0.08
